Values joined by “and” are separate entries in the source; they are usually repeats but may differ in a detail not shown here. Equal entries are not always repeated. Inconclusive results and toxic doses are left out.
Test system: BDF1 mice, P388 leukemia ip, median survival T/C
Test: NCI In Vivo Anticancer Drug Screen. Data for tumor model P388 Leukemia (intraperitoneal) in B6D2F1 (BDF1) mice
Settings: endpoint: median survival time, higher = longer survival
How it was run: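 Survival ratio, drug arm over vehicle arm, in mice with a transplanted tumour.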

[1] = dose: 100.0 mg/kg/injection, schedule: Q01DX009 (ip), vehicle: saline
[2] = dose: 200.0 mg/kg/injection, schedule: Q01DX009 (ip), vehicle: saline
[3] = dose: 50.0 mg/kg/injection, schedule: Q01DX009 (ip), vehicle: saline with Tween-80
[4] = dose: 100.0 mg/kg/injection, schedule: Q01DX009 (ip), vehicle: saline with Tween-80
[5] = dose: 100.0 mg/kg/injection, schedule: Q01DX001 (ip), vehicle: Klucel (hydroxypropylcellulose) (HPC)
[6] = dose: 200.0 mg/kg/injection, schedule: Q01DX001 (ip), vehicle: Klucel (hydroxypropylcellulose) (HPC)
[7] = dose: 400.0 mg/kg/injection, schedule: Q01DX001 (ip), vehicle: Klucel (hydroxypropylcellulose) (HPC)
[8] = dose: 100.0 mg/kg/injection, schedule: Q04DX003 (ip), vehicle: saline with Tween-80
[9] = dose: 200.0 mg/kg/injection, schedule: Q04DX003 (ip), vehicle: saline with Tween-80
[10] = dose: 100.0 mg/kg/injection, schedule: Q04DX003 (ip), vehicle: Klucel (hydroxypropylcellulose) (HPC)
[11] = dose: 200.0 mg/kg/injection, schedule: Q04DX003 (ip), vehicle: Klucel (hydroxypropylcellulose) (HPC)

COc1c(O)cc2c(c1OC)-c1ccc(OC)c(=O)cc1[C@@H](NC(C)=O)CC2
T/C (dose: 0.62 mg/kg/injection, schedule: Q01DX009 (ip), vehicle: saline with Tween-80): 114 % of control | T/C (dose: 0.63 mg/kg/injection, schedule: Q01DX009 (ip), vehicle: saline with Tween-80): 159 % of control | T/C (dose: 1.25 mg/kg/injection, schedule: Q01DX009 (ip), vehicle: saline with Tween-80): 210 % of control | T/C (dose: 2.5 mg/kg/injection, schedule: Q01DX009 (ip), vehicle: saline with Tween-80): 236 % of control and 200 % of control | T/C (dose: 5.0 mg/kg/injection, schedule: Q01DX009 (ip), vehicle: saline with Tween-80): 236 % of control and 222 % of control | T/C (dose: 10.0 mg/kg/injection, schedule: Q01DX009 (ip), vehicle: saline with Tween-80): 210 % of control

Nc1cc(S(N)(=O)=O)ccc1SSc1ccc(S(N)(=O)=O)cc1N
T/C [1]: 122 % of control | T/C [2]: 154 % of control

C=CCc1ccccc1CNC(C)(C)CO
T/C [3]: 103 % of control | T/C [4]: 103 % of control

COc1ccc(Cl)cc1N
T/C [3]: 95 % of control | T/C [4]: 91 % of control

O=C(Nc1cccc(Cl)c1)Oc1ccc2ccccc2c1
T/C [5]: 109 % of control | T/C [6]: 113 % of control | T/C [7]: 100 % of control

CC1(C)OB(C(B2OC(C)(C)C(C)(C)O2)=C(CCl)CCl)OC1(C)C
T/C (dose: 25.0 mg/kg/injection, schedule: Q01DX001 (ip), vehicle: saline sonified): 86 % of control | T/C (dose: 50.0 mg/kg/injection, schedule: Q01DX001 (ip), vehicle: saline sonified): 95 % of control | T/C (dose: 100.0 mg/kg/injection, schedule: Q01DX001 (ip), vehicle: saline sonified): 95 % of control

COc1cc(C=NC(CO)C(=O)O)ccc1O.COc1cc(C=NC(CO)C(=O)O)ccc1O.[Fe] (stereo not drawn)
T/C [1]: 100 % of control | T/C (dose: 100.0 mg/kg/injection, schedule: Q04DX003 (ip), vehicle: saline): 100 % of control | T/C [2]: 100 % of control | T/C (dose: 200.0 mg/kg/injection, schedule: Q04DX003 (ip), vehicle: saline): 95 % of control | T/C (dose: 400.0 mg/kg/injection, schedule: Q04DX003 (ip), vehicle: saline): 95 % of control

Nc1ccn(C2CC(O)C(CO)O2)c(=O)n1 (stereo not drawn)
T/C (dose: 2.3 mg/kg/injection, schedule: Q01DX009 (ip), vehicle: water): 117 % of control | T/C (dose: 9.37 mg/kg/injection, schedule: Q01DX009 (ip), vehicle: water): 117 % of control | T/C (dose: 18.75 mg/kg/injection, schedule: Q01DX009 (ip), vehicle: water): 110 % of control

NC(C(=O)O)c1cccc(Cl)c1 (stereo not drawn)
T/C [5]: 91 % of control | T/C [6]: 108 % of control | T/C [7]: 95 % of control

CCCC1CC[N-]CC1.CCCC1CC[N-]CC1.[Cl][Co][Cl]
T/C (dose: 12.5 mg/kg/injection, schedule: Q01DX009 (ip), vehicle: water): 91 % of control and 100 % of control | T/C (dose: 25.0 mg/kg/injection, schedule: Q01DX009 (ip), vehicle: water): 116 % of control | T/C (dose: 50.0 mg/kg/injection, schedule: Q01DX009 (ip), vehicle: water): 112 % of control | T/C (dose: 50.0 mg/kg/injection, schedule: Q04DX003 (ip), vehicle: water): 120 % of control

COC(CN(C)C(=O)NC1CCCCC1)OC
T/C (dose: 50.0 mg/kg/injection, schedule: Q04DX003 (ip), vehicle: saline with Tween-80): 95 % of control | T/C [8]: 100 % of control | T/C [9]: 100 % of control

c1ccc(C2=NC(CCN3CCCCC3)(c3ccccc3)SC2CN2CCCCC2)cc1 (stereo not drawn)
T/C (dose: 50.0 mg/kg/injection, schedule: Q01DX005 (ip), vehicle: Klucel (hydroxypropylcellulose) (HPC)): 101 % of control | T/C (dose: 100.0 mg/kg/injection, schedule: Q01DX005 (ip), vehicle: Klucel (hydroxypropylcellulose) (HPC)): 105 % of control | T/C (dose: 200.0 mg/kg/injection, schedule: Q01DX005 (ip), vehicle: Klucel (hydroxypropylcellulose) (HPC)): 104 % of control

Nc1ccccc1SC1CC(=O)N(c2ccccc2)C1=O (stereo not drawn)
T/C [5]: 100 % of control | T/C (dose: 100.0 mg/kg/injection, schedule: Q01DX009 (ip), vehicle: Klucel (hydroxypropylcellulose) (HPC)): 116 % of control | T/C [10]: 100 % of control | T/C [6]: 95 % of control | T/C (dose: 200.0 mg/kg/injection, schedule: Q01DX009 (ip), vehicle: Klucel (hydroxypropylcellulose) (HPC)): 122 % of control | T/C [11]: 95 % of control | T/C [7]: 95 % of control | T/C (dose: 400.0 mg/kg/injection, schedule: Q01DX009 (ip), vehicle: Klucel (hydroxypropylcellulose) (HPC)): 105 % of control | T/C (dose: 400.0 mg/kg/injection, schedule: Q04DX003 (ip), vehicle: Klucel (hydroxypropylcellulose) (HPC)): 95 % of control

OC(CCCCl)CC(O)(C(F)(F)F)C(F)(F)F (stereo not drawn)
T/C [8]: 100 % of control | T/C [9]: 109 % of control

O=S1(=O)CC(S(=O)(=O)O)C(S(=O)(=O)O)C1 (stereo not drawn)
T/C (dose: 50.0 mg/kg/injection, schedule: Q04DX003 (ip), vehicle: Klucel (hydroxypropylcellulose) (HPC)): 100 % of control | T/C (dose: 100.0 mg/kg/injection, schedule: Q01DX001 (ip), vehicle: saline): 108 % of control | T/C [10]: 100 % of control | T/C (dose: 200.0 mg/kg/injection, schedule: Q01DX001 (ip), vehicle: saline): 100 % of control | T/C [11]: 100 % of control | T/C (dose: 400.0 mg/kg/injection, schedule: Q01DX001 (ip), vehicle: saline): 108 % of control

CCC(c1ccccc1)C(C(=O)O)C(=O)O (stereo not drawn)
T/C (dose: 100.0 mg/kg/injection, schedule: Q04DX002 (ip), vehicle: saline with Tween-80): 110 % of control | T/C (dose: 200.0 mg/kg/injection, schedule: Q04DX002 (ip), vehicle: saline with Tween-80): 101 % of control | T/C (dose: 400.0 mg/kg/injection, schedule: Q04DX002 (ip), vehicle: saline with Tween-80): 103 % of control

C1CN(P2(N3CC3)=NP(N3CC3)(N3CC3)=NP(N3CC3)(N3CC3)=N2)CCO1 (stereo not drawn)
T/C (dose: 6.25 mg/kg/injection, schedule: Q01DX009 (ip), vehicle: saline): 167 % of control and 195 % of control | T/C (dose: 12.5 mg/kg/injection, schedule: Q01DX009 (ip), vehicle: saline): 227 % of control and 200 % of control | T/C (dose: 25.0 mg/kg/injection, schedule: Q01DX009 (ip), vehicle: saline): 260 % of control and 155 % of control

NC(=O)/C=C/C(=O)c1c(Cl)cccc1Cl
T/C (dose: 1.56 mg/kg/injection, schedule: Q01DX009 (ip), vehicle: saline with Tween-80): 109 % of control and 115 % of control | T/C (dose: 3.13 mg/kg/injection, schedule: Q01DX009 (ip), vehicle: saline with Tween-80): 118 % of control | T/C (dose: 6.25 mg/kg/injection, schedule: Q01DX009 (ip), vehicle: saline with Tween-80): 123 % of control and 124 % of control | T/C (dose: 12.5 mg/kg/injection, schedule: Q01DX009 (ip), vehicle: saline with Tween-80): 95 % of control

NC(Cc1ccc(N(CCCl)CCCl)cc1)C(=O)O (stereo not drawn)
T/C (dose: 0.5 mg/kg/injection, schedule: Q01DX009 (ip), vehicle: Klucel (hydroxypropylcellulose) (HPC)): 179 % of control | T/C (dose: 1.0 mg/kg/injection, schedule: Q01DX009 (ip), vehicle: Klucel (hydroxypropylcellulose) (HPC)): 222 % of control | T/C (dose: 1.25 mg/kg/injection, schedule: Q01DX010 (ip), vehicle: saline): 181 % of control and 208 % of control | T/C (dose: 2.0 mg/kg/injection, schedule: Q01DX009 (ip), vehicle: Klucel (hydroxypropylcellulose) (HPC)): 239 % of control | T/C (dose: 2.0 mg/kg/injection, schedule: Q01DX010 (ip), vehicle: other): 300 % of control | T/C (dose: 2.5 mg/kg/injection, schedule: Q01DX010 (ip), vehicle: saline): 209 % of control and 216 % of control | T/C (dose: 4.0 mg/kg/injection, schedule: Q01DX009 (ip), vehicle: Klucel (hydroxypropylcellulose) (HPC)): 256 % of control | T/C (dose: 4.0 mg/kg/injection, schedule: Q01DX010 (ip), vehicle: other): 250 % of control | T/C (dose: 5.0 mg/kg/injection, schedule: Q01DX010 (ip), vehicle: saline): 233 % of control and 286 % of control | T/C (dose: 8.0 mg/kg/injection, schedule: Q01DX010 (ip), vehicle: other): 113 % of control | T/C (dose: 10.0 mg/kg/injection, schedule: Q01DX010 (ip), vehicle: saline): 100 % of control | T/C (dose: 16.0 mg/kg/injection, schedule: Q01DX010 (ip), vehicle: other): 90 % of control

— PubChem BioAssay AID328 (DTP/NCI, 2004)
